Measurements: the kinase profiling compilation of Christmann-Franck et al. (2016)

Legend:
Assay in all cases: KINOMEscan competition binding
Details in all cases: compound 10.0 µM
[1] = biological target: MARK4 (human) (UniProt Q96L34)
[2] = biological target: PIK3CD (human) (UniProt O00329)
[3] = biological target: TESK1 (human) (UniProt Q15569)
[4] = biological target: TEK (human) (UniProt Q02763)
[5] = biological target: NEK5 (human) (UniProt Q6P3R8)
[6] = biological target: JAK1 JH2 pseudokinase (human) (UniProt P23458)
[7] = biological target: FES (human) (UniProt P07332)
[8] = biological target: PDGFRB (human) (UniProt P09619)
[9] = biological target: LIMK2 (human) (UniProt P53671)
[10] = tested on: KIT (human), P10721 [D816V]
KIT (human), P10721 [D816V], sequence (P10721 whole entry D816V, looked up): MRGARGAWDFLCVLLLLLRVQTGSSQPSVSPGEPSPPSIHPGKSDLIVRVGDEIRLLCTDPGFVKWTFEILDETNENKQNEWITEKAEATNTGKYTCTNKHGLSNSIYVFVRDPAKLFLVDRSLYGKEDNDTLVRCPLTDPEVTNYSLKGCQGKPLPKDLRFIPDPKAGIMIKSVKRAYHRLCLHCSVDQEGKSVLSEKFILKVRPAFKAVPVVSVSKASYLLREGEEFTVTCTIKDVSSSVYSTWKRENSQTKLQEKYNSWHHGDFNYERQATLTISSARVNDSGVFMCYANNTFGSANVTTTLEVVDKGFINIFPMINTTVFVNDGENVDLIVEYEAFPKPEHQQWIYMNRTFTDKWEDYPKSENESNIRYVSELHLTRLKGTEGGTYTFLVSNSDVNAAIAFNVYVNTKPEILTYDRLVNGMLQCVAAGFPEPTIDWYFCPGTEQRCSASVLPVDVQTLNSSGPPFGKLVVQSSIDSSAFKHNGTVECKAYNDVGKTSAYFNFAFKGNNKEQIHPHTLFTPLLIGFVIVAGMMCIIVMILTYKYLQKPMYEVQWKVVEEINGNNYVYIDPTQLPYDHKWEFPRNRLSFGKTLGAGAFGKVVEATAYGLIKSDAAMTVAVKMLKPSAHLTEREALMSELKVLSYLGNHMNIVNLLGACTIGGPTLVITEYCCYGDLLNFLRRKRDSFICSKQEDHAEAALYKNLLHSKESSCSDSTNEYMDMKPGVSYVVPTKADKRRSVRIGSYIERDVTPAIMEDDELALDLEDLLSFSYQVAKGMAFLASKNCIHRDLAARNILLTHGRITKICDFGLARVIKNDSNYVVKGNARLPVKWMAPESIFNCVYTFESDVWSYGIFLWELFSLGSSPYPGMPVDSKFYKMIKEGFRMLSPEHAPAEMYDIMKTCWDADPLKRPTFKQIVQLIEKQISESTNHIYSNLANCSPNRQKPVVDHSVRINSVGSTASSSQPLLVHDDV

[11] = biological target: TXK (human) (UniProt P42681)
[12] = biological target: AXL (human) (UniProt P30530)
[13] = biological target: MAPK6 (human) (UniProt Q16659)
MAPK6 (human), sequence (Q16659 whole entry, looked up): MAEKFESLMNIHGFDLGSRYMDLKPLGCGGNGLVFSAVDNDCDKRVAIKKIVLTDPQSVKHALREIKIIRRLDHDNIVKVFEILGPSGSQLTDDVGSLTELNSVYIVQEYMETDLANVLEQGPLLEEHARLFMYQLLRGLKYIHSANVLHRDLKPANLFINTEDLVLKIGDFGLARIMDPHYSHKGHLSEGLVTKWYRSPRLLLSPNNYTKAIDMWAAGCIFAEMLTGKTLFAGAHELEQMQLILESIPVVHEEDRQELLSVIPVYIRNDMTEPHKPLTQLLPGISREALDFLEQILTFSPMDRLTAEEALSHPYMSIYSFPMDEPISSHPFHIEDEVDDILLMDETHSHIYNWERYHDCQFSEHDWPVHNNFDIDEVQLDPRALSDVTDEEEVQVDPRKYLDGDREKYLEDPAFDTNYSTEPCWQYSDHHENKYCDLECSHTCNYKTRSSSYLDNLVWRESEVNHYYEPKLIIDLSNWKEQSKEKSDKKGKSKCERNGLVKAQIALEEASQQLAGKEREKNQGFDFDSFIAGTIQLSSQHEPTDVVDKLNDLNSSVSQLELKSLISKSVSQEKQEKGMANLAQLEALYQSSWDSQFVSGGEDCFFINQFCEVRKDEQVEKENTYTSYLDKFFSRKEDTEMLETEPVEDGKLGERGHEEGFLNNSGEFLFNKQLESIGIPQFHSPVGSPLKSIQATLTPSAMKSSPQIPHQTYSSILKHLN

[14] = biological target: MAP3K12 (human) (UniProt Q12852)
[15] = biological target: CDK11B (human) (UniProt P21127)
[16] = biological target: ROCK2 (human) (UniProt O75116)
[17] = biological target: PRKG2 (human) (UniProt Q13237)
[18] = biological target: CSNK1G3 (human) (UniProt Q9Y6M4)
CSNK1G3 (human), sequence (Q9Y6M4 whole entry, looked up): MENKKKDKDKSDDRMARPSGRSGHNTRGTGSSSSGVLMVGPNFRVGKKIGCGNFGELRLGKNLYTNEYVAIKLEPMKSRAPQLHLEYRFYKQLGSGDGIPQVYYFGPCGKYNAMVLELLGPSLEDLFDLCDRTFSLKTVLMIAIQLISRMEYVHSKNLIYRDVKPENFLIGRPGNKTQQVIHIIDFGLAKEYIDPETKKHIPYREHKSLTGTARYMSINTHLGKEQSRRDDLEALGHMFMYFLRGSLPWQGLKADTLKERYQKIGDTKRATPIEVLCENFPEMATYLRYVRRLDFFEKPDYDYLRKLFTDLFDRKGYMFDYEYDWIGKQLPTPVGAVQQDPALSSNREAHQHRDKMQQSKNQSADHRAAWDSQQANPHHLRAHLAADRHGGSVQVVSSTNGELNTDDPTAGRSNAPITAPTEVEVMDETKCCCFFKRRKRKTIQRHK

[19] = biological target: EPHA5 (human) (UniProt P54756)
[20] = biological target: TGFBR2 (human) (UniProt P37173)
[21] = biological target: IKBKB (human) (UniProt O14920)
IKBKB (human), sequence (O14920 whole entry, looked up): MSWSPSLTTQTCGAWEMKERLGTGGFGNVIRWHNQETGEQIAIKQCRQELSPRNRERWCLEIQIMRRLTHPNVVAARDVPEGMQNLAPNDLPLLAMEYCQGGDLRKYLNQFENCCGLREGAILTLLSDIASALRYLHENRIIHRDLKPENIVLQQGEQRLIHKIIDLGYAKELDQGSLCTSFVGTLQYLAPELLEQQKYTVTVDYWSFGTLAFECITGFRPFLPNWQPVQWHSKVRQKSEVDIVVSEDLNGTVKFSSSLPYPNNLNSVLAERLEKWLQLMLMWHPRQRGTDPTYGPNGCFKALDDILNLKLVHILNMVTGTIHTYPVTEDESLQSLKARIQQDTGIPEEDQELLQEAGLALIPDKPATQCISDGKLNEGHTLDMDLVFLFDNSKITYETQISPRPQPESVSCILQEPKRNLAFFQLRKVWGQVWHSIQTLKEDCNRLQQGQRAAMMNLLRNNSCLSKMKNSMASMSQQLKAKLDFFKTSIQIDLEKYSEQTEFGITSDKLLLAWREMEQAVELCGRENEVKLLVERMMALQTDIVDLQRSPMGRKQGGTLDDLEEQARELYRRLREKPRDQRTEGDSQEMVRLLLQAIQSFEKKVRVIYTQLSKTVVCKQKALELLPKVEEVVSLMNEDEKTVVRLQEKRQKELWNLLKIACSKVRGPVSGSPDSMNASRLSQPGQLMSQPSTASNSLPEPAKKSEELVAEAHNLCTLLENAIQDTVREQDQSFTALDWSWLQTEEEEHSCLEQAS

[22] = biological target: MST4 (human) (UniProt Q9P289)
[23] = biological target: CAMK2A (human) (UniProt Q9UQM7)
[24] = biological target: MYLK4 (human) (UniProt Q86YV6)
MYLK4 (human), sequence (Q86YV6 whole entry, looked up): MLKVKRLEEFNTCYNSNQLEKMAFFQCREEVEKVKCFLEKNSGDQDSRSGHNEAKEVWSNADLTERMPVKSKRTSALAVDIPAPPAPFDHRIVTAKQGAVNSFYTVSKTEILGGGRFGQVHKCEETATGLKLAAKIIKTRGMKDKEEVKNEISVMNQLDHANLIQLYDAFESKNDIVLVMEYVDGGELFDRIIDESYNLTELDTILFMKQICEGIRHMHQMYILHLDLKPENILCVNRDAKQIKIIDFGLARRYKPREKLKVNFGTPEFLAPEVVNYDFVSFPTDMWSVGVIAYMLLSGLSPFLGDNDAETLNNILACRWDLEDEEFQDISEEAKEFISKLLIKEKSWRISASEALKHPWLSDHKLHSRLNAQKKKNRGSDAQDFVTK

[25] = biological target: FER (human) (UniProt P16591)
[26] = biological target: MAPK15 (human) (UniProt Q8TD08)
MAPK15 (human), sequence (Q8TD08 whole entry, looked up): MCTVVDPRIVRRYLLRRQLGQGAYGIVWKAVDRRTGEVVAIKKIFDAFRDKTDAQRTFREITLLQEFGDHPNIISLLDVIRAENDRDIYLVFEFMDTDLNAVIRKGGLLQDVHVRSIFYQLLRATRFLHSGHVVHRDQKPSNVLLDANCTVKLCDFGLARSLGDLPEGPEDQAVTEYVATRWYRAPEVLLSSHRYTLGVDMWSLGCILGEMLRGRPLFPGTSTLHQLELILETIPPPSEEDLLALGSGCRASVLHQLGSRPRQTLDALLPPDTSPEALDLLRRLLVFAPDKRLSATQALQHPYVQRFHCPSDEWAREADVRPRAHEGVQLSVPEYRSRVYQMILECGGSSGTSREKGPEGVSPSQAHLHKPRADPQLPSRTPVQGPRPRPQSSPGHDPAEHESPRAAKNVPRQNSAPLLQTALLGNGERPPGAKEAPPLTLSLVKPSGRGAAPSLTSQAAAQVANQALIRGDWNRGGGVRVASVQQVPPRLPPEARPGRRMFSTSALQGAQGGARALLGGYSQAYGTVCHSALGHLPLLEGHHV

[27] = biological target: ITK (human) (UniProt Q08881)
[28] = biological target: RPS6KA5 KD2 (human) (UniProt O75582)
[29] = biological target: TEC (human) (UniProt P42680)
[30] = biological target: ROS1 (human) (UniProt P08922)
[31] = biological target: LCK (human) (UniProt P06239)
[32] = biological target: ACVR2B (human) (UniProt Q13705)
[33] = biological target: PRKD1 (human) (UniProt Q15139)
[34] = biological target: PIP5K1A (human) (UniProt Q99755)
[35] = biological target: MAP2K3 (human) (UniProt P46734)
[36] = biological target: MAP3K3 (human) (UniProt Q99759)
[37] = biological target: GSK3A (human) (UniProt P49840)
[38] = biological target: PAK2 (human) (UniProt Q13177)
PAK2 (human), sequence (Q13177 whole entry, looked up): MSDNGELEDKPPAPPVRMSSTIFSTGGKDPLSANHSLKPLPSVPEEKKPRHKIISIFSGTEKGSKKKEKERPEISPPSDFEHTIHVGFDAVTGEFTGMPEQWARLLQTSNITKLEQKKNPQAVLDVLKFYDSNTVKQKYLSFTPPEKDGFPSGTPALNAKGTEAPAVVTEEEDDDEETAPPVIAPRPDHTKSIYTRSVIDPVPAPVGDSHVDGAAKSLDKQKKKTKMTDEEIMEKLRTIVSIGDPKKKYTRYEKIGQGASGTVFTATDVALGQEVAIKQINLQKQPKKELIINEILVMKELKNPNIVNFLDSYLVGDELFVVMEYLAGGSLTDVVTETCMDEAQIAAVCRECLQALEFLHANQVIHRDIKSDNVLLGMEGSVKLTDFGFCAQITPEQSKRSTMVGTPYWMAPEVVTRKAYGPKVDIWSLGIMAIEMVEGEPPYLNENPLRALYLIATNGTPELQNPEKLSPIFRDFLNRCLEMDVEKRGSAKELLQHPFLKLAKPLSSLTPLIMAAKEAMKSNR

[39] = biological target: SIK1 (human) (UniProt P57059)
[40] = biological target: NUAK2 (human) (UniProt Q9H093)
NUAK2 (human), sequence (Q9H093 whole entry, looked up): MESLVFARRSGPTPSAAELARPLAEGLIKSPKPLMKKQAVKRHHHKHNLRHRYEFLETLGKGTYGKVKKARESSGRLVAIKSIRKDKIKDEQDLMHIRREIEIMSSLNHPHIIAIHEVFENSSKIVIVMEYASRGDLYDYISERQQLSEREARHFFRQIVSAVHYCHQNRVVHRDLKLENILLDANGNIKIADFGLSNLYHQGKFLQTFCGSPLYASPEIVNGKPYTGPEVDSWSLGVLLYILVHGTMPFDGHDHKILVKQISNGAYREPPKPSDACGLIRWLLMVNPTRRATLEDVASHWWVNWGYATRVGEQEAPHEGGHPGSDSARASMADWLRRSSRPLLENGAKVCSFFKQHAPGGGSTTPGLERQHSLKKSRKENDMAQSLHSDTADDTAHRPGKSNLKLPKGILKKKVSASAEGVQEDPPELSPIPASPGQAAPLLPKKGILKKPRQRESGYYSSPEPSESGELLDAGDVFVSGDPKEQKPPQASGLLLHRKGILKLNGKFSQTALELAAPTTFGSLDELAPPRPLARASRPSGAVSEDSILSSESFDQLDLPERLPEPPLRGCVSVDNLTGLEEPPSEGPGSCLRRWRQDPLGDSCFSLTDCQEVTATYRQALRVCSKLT

| SMILES | kinase still bound, per cent of control [1] [%] | kinase still bound, per cent of control [2] [%] | kinase still bound, per cent of control [3] [%] | kinase still bound, per cent of control [4] [%] | kinase still bound, per cent of control [5] [%] | kinase still bound, per cent of control [6] [%] | kinase still bound, per cent of control [7] [%] | kinase still bound, per cent of control [8] [%] | kinase still bound, per cent of control [9] [%] | kinase still bound, per cent of control [10] [%] | kinase still bound, per cent of control [11] [%] | kinase still bound, per cent of control [12] [%] | kinase still bound, per cent of control [13] [%] | kinase still bound, per cent of control [14] [%] | kinase still bound, per cent of control [15] [%] | kinase still bound, per cent of control [16] [%] | kinase still bound, per cent of control [17] [%] | kinase still bound, per cent of control [18] [%] | kinase still bound, per cent of control [19] [%] | kinase still bound, per cent of control [20] [%] | other results |
| --- | --- | --- | --- | --- | --- | --- | --- | --- | --- | --- | --- | --- | --- | --- | --- | --- | --- | --- | --- | --- | --- |
| COc1cc(C(=O)NC2CCN(C)CC2)ccc1Nc1ncc2c(n1)N(C1CCCC1)CCC(=O)N2C(C)C | 0 | 100 | 100 | 100 | 100 | 100 | 100 | 100 | 100 | 100 | 100 | 100 | 100 | 100 | 100 | 100 | 100 | 100 | 100 | 100 | kinase still bound, per cent of control [21]: 100%; kinase still bound, per cent of control [22]: 100%; kinase still bound, per cent of control [23]: 100%; kinase still bound, per cent of control [24]: 100%; kinase still bound, per cent of control [25]: 100%; kinase still bound, per cent of control [26]: 100%; kinase still bound, per cent of control [27]: 100%; kinase still bound, per cent of control [28]: 100%; kinase still bound, per cent of control [29]: 100%; kinase still bound, per cent of control [30]: 100%; kinase still bound, per cent of control [31]: 100%; kinase still bound, per cent of control [32]: 100%; kinase still bound, per cent of control [33]: 100%; kinase still bound, per cent of control [34]: 6.4%; kinase still bound, per cent of control [35]: 100%; kinase still bound, per cent of control [36]: 100%; kinase still bound, per cent of control [37]: 100%; kinase still bound, per cent of control [38]: 100%; kinase still bound, per cent of control [39]: 100%; kinase still bound, per cent of control [40]: 100% |
| C=CC(=O)Nc1cc(NC(=O)c2ccc(C)c(NC(=O)c3ccno3)c2)cc(C(F)(F)F)c1 | 100 | 100 | 100 | 100 | 100 | 92 | 100 | 1.2 | 96 | 78 | 93 | 100 | 100 | 100 | 86 | 85 | 94 | 96 | 80 | 93 | kinase still bound, per cent of control [21]: 90%; kinase still bound, per cent of control [22]: 91%; kinase still bound, per cent of control [23]: 91%; kinase still bound, per cent of control [24]: 97%; kinase still bound, per cent of control [25]: 100%; kinase still bound, per cent of control [26]: 100%; kinase still bound, per cent of control [27]: 93%; kinase still bound, per cent of control [28]: 90%; kinase still bound, per cent of control [29]: 100%; kinase still bound, per cent of control [30]: 100%; kinase still bound, per cent of control [31]: 45%; kinase still bound, per cent of control [32]: 100%; kinase still bound, per cent of control [33]: 100%; kinase still bound, per cent of control [34]: 100%; kinase still bound, per cent of control [35]: 100%; kinase still bound, per cent of control [36]: 96%; kinase still bound, per cent of control [37]: 100%; kinase still bound, per cent of control [38]: 71%; kinase still bound, per cent of control [39]: 97%; kinase still bound, per cent of control [40]: 97% |
